Assay results taken from PMC10111413 (ACS Infectious Diseases, 2023).
Values after ≈ are worked out from the molar mass of the structure shown. Where a SMILES comes first, the peptide text is derived from it. Bridges are numbered along the chain shown (N, C = ends). [ ]: non-standard residue; d: D form. The star is where a group is joined. ξ: configuration not given here. Hexanoyl(4ξ-Me) = CCC(C)CCC(=O)*; dOrn = NCCC[C@@H](N)C(=O)O; Orn = NCCC[C@H](N)C(=O)O

How the values were obtained:
A. baumannii BV94 = type: cell-based; conditions: BV94, 18 h
Description: (§1) VIII. Antimicrobial testing
(§2) Table S2. Minimum inhibitory concentrations (MICs) determined against panel of previously characterized colistin-resistant A. baumannii clinical isolates5
(§3) Strain Relacidine A (3a) Relacidine B (4a) Relacidamide (5) Colistin […]
(§4) aMIC values given in µg/ml.
(§5) All minimum inhibitory concentrations were determined according to Clinical and Standards Laboratory Institute (CLSI) guidelines. Blood agar plates were inoculated from glycerol stocks of the different A. baumannii strains used and then incubated for 16 h at 37 °C . Individually grown colonies were subsequently used to inoculate 5 mL aliquots of TSB that were then incubated at 37 °C. In parallel, the lipopeptide antibiotics DMSO stocks to be assessed were serially diluted with cation-adjusted MHB in polypropylene 96-well plates (50 µL in each well). Colistin sulfate stocks were dissolved in water before being diluted with cation-adjusted MHB. The A. baumannii inoculated TSB aliquots were incubated until an OD600 of around 0.5 was reached. The bacterial suspensions were then diluted with cation-adjusted MHB (2 x 10^5 CFU mL-1) and added to the microplates containing the test compounds (50 µL to each well). The well-plates were sealed with an adhesive membrane and after 18 h of incubation at 37 °C visually inspected for bacterial growth. MIC values reported are based on three technical replicates and defined as the lowest concentration of the compound that prevented visible

A. baumannii BV172 = type: cell-based; conditions: BV172, 18 h
Description: as §1, §2, §3, §4, §5

A. baumannii BV95 = type: cell-based; conditions: BV95, 18 h
Description: as §1, §2, §3, §4, §5

A. baumannii NCTC 13420 = type: cell-based; conditions: NCTC 13420, 18 h
Description: as §1, §2, §3, §4, §5

A. baumannii ATCC 17978 = type: cell-based; conditions: ATCC 17978, 18 h
Description: as §1, §2, §3, §4, §5

A. baumannii NCTC 13304 = type: cell-based; conditions: NCTC 13304, 18 h
Description: as §1, §2, §3, §4, §5

A. baumannii BV173 = type: cell-based; conditions: BV173, 18 h
Description: as §1, §2, §3, §4, §5

A. baumannii LAC-4 = type: cell-based; conditions: LAC-4, 18 h
Description: as §1, §2, §3, §4, §5

A. baumannii HUMC1 = type: cell-based; conditions: HUMC1, 18 h
Description: as §1, §2, §3, §4, §5

E. coli ATCC 25922 = type: cell-based; conditions: ATCC 25922, 18 h
Description: (§6) The antibacterial activities of relacidine A (3a) and B (4a), along with diastereomers 3b and 4b–d and relacidamide (5), were assessed using a standard microbroth dilution assay to establish minimum inhibitory concentration (MIC) values against a panel of Gram-negative bacteria (Table 1). The MIC values measured for synthetic relacidine A (3a) and B (4a) agree well with those previously published.[9] […] Relacidine A (3a) and B (4a), as well as relacidamide (5), were further tested against a panel of colistin-resistant A. baumannii clinical isolates, which confirmed their ability to prevent the growth of colistin-resistant isolates (Supplemental Table S2). […] Also of interest was the finding that while relacidine B (4a) induced <1% hemolysis, a substitution of either the L-Ala or L-Ser to D-Ala or D-Ser increased hemolytic activity to 8–12%. […] The greater hydrolytic stability of relacidine B would appear to be attributable to the increased steric bulk of the Ala side chain next to the ester linkage (compared with the methylene of Gly in relacidine A), which may hinder the nucleophilic attack of water at the ester carbonyl.
(§7) Colistin sulfate was purchased from Activate Scientific. Kanamycin monosulfate was purchased from MP Biomedicals. E. coli ATCC 25922, S. aureus USA300 (ATCC BAA1717), and K. pneumoniae ATCC 13883 belong to the American Type Culture Collection (ATCC). P. aeruginosa PAO1 was kindly provided by L.H.C. Quarles Van Ufford of Utrecht University, Utrecht, The Netherlands. E. coli ATCC 25922 MCR-1 was transfected in-house using the pGDP2-MCR1 plasmid kindly provided by Yong-Xin Li of The University of Hong Kong, Hong Kong, China. Sheep blood agar plates (ref. PB5039A) were purchased from Thermo Scientific. Tryptic soy broth (ref. 02-200-500) was purchased from Scharlab. Mueller-Hinton broth (ref. X927.1) was purchased from Carl Roth. Polypropylene 96-wells plates (ref. 3879) were purchased from Corning.
(§8) MICs were determined according to Clinical and Standards Laboratory Institute (CLSI) guidelines. Blood agar plates were inoculated with glycerol stocks of E. coli ATCC 25922, K. pneumoniae ATCC 13883, P. aeruginosa PAO1, and S. aureus USA300. The inoculated agar plates were then incubated for 16 h at 37 °C. Individually grown colonies were subsequently used to inoculate 5 mL aliquots of tryptic soy broth (TSB) that were then incubated at 37 °C with shaking at 220 rpm. E. coli 25922 MCR-1 glycerol stock was used to inoculate 5 mL of TSB supplemented with kanamycin that was then incubated for 16 h at 37 °C with shaking at 220 rpm. The next day, the culture was diluted 100-fold in TSB supplemented with kanamycin and incubated at 37 °C with shaking at 220 rpm. In parallel, the lipopeptide antibiotic DMSO stocks to be assessed were serially diluted with Mueller Hinton broth (MHB) in polypropylene 96-well plates (50 μL in each well). Colistin sulfate stocks were dissolved in water before being diluted with MHB. Aliquots of the inoculated TSB were incubated until an OD600 of around 0.5 was reached. The bacterial suspensions were then diluted with MHB (2 × 10^5 cfu mL^–1) and added to the microplates containing the test compounds (50 μL to each well). The well plates were sealed with an adhesive membrane, and after 18 h of incubation at 37 °C with shaking at 600 rpm, the wells were visually inspected for bacterial growth. MIC values reported are based on three technical replicates and defined as the lowest concentration of the compound that prevented visible growth of bacteria.

S. aureus USA300 = type: cell-based; conditions: USA300, 18 h
Description: as §6, §7, §8

K. pneumoniae ATCC 13883 = type: cell-based; conditions: ATCC 13883, 18 h
Description: as §6, §7, §8

P. aeruginosa PAO1 = type: cell-based; conditions: PAO1, 18 h
Description: as §6, §7, §8

E. coli ATCC 25922 mcr-1 = type: cell-based; conditions: CLSI microbroth dilution, Mueller Hinton broth, 18 h at 37 °C, visual read-out, three technical replicates; mcr-1 colistin resistance plasmid
Description: as §6, §7, §8

[1] = human serum (obtained from Sigma Aldrich, product number: H4522); conditions: 37 °C, up to 24 h

Molecule	MIC A. baumannii BV94 (A. baumannii BV94) [µg/mL]	MIC A. baumannii BV172 (A. baumannii BV172) [µg/mL]	MIC A. baumannii BV95 (A. baumannii BV95) [µg/mL]	MIC A. baumannii NCTC 13420 (A. baumannii NCTC 13420) [µg/mL]	MIC A. baumannii ATCC 17978 (A. baumannii ATCC 17978) [µg/mL]	MIC A. baumannii NCTC 13304 (A. baumannii NCTC 13304) [µg/mL]	MIC A. baumannii BV173 (A. baumannii BV173) [µg/mL]	MIC A. baumannii LAC-4 (A. baumannii LAC-4) [µg/mL]	MIC A. baumannii HUMC1 (A. baumannii HUMC1) [µg/mL]	MIC E. coli ATCC 25922 (E. coli ATCC 25922) [µg/mL]	MIC S. aureus USA300 (S. aureus USA300) [µg/mL]	MIC K. pneumoniae ATCC 13883 (K. pneumoniae ATCC 13883) [µg/mL]	MIC P. aeruginosa PAO1 (P. aeruginosa PAO1) [µg/mL]	MIC E. coli ATCC 25922 mcr-1 (E. coli ATCC 25922 mcr-1) [µg/mL]	not cleaved [1]
CCC(C)CCC(=O)N[C@H](CO)C(=O)N[C@H](Cc1ccc(O)cc1)C(=O)N[C@H](Cc1c[nH]c2ccccc12)C(=O)N[C@H](CCCN)C(=O)N[C@@H](CCCN)C(=O)NCC(=O)N[C@H](CCCN)C(=O)N[C@@H](Cc1c[nH]c2ccccc12)C(=O)N[C@@H]1C(=O)N[C@@H]([C@@H](C)CC)C(=O)NCC(=O)N[C@@H](CO)C(=O)NCC(=O)O[C@@H]1C (stereo partly shown) [3a, Relacidine A] ({Hexanoyl(4ξ-Me)}-[dS][dY][dW][dOrn][Orn]G[dOrn]WTIGSG; ester 9-C)	8 (≈ 5.16 µM)	16 (≈ 10.3 µM)	8 (≈ 5.16 µM)	8 (≈ 5.16 µM)	8 (≈ 5.16 µM)	4 (≈ 2.58 µM)	8 (≈ 5.16 µM)	4 (≈ 2.58 µM)	16 (≈ 10.3 µM)	2 (≈ 1.29 µM)	>32	4 (≈ 2.58 µM)	4 (≈ 2.58 µM)	2 to 4	–
CCC(C)CCC(=O)N[C@H](CO)C(=O)N[C@H](Cc1ccc(O)cc1)C(=O)N[C@H](Cc1c[nH]c2ccccc12)C(=O)N[C@H](CCCN)C(=O)N[C@@H](CCCN)C(=O)NCC(=O)N[C@H](CCCN)C(=O)N[C@@H](Cc1c[nH]c2ccccc12)C(=O)N[C@@H]1C(=O)N[C@@H]([C@@H](C)CC)C(=O)NCC(=O)N[C@H](CO)C(=O)NCC(=O)O[C@@H]1C (stereo partly drawn) [3b, D-Ser12-Relacidine A] ({Hexanoyl(4ξ-Me)}-[dS][dY][dW][dOrn][Orn]G[dOrn]WTIG[dS]G; ester 9-C)	–	–	–	–	–	–	–	–	–	2 to 4	>32	4 (≈ 2.58 µM)	2 (≈ 1.29 µM)	4 (≈ 2.58 µM)	–
CCC(C)CCC(=O)N[C@H](CO)C(=O)N[C@H](Cc1ccc(O)cc1)C(=O)N[C@H](Cc1c[nH]c2ccccc12)C(=O)N[C@H](CCCN)C(=O)N[C@@H](CCCN)C(=O)NCC(=O)N[C@H](CCCN)C(=O)N[C@@H](Cc1c[nH]c2ccccc12)C(=O)N[C@@H]1C(=O)N[C@@H]([C@@H](C)CC)C(=O)NCC(=O)N[C@@H](CO)C(=O)N[C@@H](C)C(=O)O[C@@H]1C (stereo partly shown) [4a, Relacidine B] ({Hexanoyl(4ξ-Me)}-[dS][dY][dW][dOrn][Orn]G[dOrn]WTIGSA; ester 9-C)	16 (≈ 10.2 µM)	16 (≈ 10.2 µM)	8 (≈ 5.12 µM)	16 (≈ 10.2 µM)	4 (≈ 2.56 µM)	4 (≈ 2.56 µM)	16 (≈ 10.2 µM)	8 (≈ 5.12 µM)	8 (≈ 5.12 µM)	1 (≈ 0.639 µM)	>32	4 (≈ 2.56 µM)	4 (≈ 2.56 µM)	2 (≈ 1.28 µM)	–
CCC(C)CCC(=O)N[C@H](CO)C(=O)N[C@H](Cc1ccc(O)cc1)C(=O)N[C@H](Cc1c[nH]c2ccccc12)C(=O)N[C@H](CCCN)C(=O)N[C@@H](CCCN)C(=O)NCC(=O)N[C@H](CCCN)C(=O)N[C@@H](Cc1c[nH]c2ccccc12)C(=O)N[C@@H]1C(=O)N[C@@H]([C@@H](C)CC)C(=O)NCC(=O)N[C@@H](CO)C(=O)N[C@H](C)C(=O)O[C@@H]1C (stereo partly drawn) [4b, D-Ala13, L-Ser12-Relacidine B] ({Hexanoyl(4ξ-Me)}-[dS][dY][dW][dOrn][Orn]G[dOrn]WTIGS[dA]; ester 9-C)	–	–	–	–	–	–	–	–	–	2 (≈ 1.28 µM)	>32	4 (≈ 2.56 µM)	4 (≈ 2.56 µM)	2 to 4	–
CCC(C)CCC(=O)N[C@H](CO)C(=O)N[C@H](Cc1ccc(O)cc1)C(=O)N[C@H](Cc1c[nH]c2ccccc12)C(=O)N[C@H](CCCN)C(=O)N[C@@H](CCCN)C(=O)NCC(=O)N[C@H](CCCN)C(=O)N[C@@H](Cc1c[nH]c2ccccc12)C(=O)N[C@@H]1C(=O)N[C@@H]([C@@H](C)CC)C(=O)NCC(=O)N[C@H](CO)C(=O)N[C@@H](C)C(=O)O[C@@H]1C (stereo partly drawn) [4c, L-Ala13, D-Ser12-Relacdine B] ({Hexanoyl(4ξ-Me)}-[dS][dY][dW][dOrn][Orn]G[dOrn]WTIG[dS]A; ester 9-C)	–	–	–	–	–	–	–	–	–	1 to 2	>32	2 to 4	4 (≈ 2.56 µM)	1 to 2	–
CCC(C)CCC(=O)N[C@H](CO)C(=O)N[C@H](Cc1ccc(O)cc1)C(=O)N[C@H](Cc1c[nH]c2ccccc12)C(=O)N[C@H](CCCN)C(=O)N[C@@H](CCCN)C(=O)NCC(=O)N[C@H](CCCN)C(=O)N[C@@H](Cc1c[nH]c2ccccc12)C(=O)N[C@@H]1C(=O)N[C@@H]([C@@H](C)CC)C(=O)NCC(=O)N[C@H](CO)C(=O)N[C@H](C)C(=O)O[C@@H]1C (stereo partly drawn) [4d, D-Ala13, D-Ser12-Relacdine B] ({Hexanoyl(4ξ-Me)}-[dS][dY][dW][dOrn][Orn]G[dOrn]WTIG[dS][dA]; ester 9-C)	–	–	–	–	–	–	–	–	–	2 (≈ 1.28 µM)	>32	2 to 4	8 (≈ 5.12 µM)	2 to 4	–
D-Ser1 D-Tyr2 D-Trp3 D-Orn4 Orn5 Gly6 D-Orn7 Trp8 Thr9 Ile10 Gly11 Ser12 Ala13 Lipid	–	–	–	–	–	–	–	–	–	–	–	–	–	–	highly resistant to degradation in human serum even after 24 h of incubation
